According to patent US20140249135A1, “PIM KINASE INHIBITORS AND METHODS OF THEIR USE” (NOVARTIS AG, priority 2007, published 2014):
Read-outs that look alike come from different tables or passages of the source.

Assays:
Type in all cases: biochemical
[1] = target: Pim1 kinase (Homo sapiens, UniProt P11309); assay: Pim1 ATP depletion assay; settings: Pim1 ATP depletion assay;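 further: Luciferase-luciferin luminescence readout of residual ATP after PIM1 transfers phosphate to a peptide substrate, 40 µM ATP added, reaction run to roughly half ATP consumption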
[2] = target: Pim2 kinase (Homo sapiens, UniProt Q9P1W9); assay: Pim2 ATP depletion assay;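 further: Luciferase-based luminescent readout of ATP remaining after PIM2 phosphorylates a BAD peptide, final 5 nM enzyme, 4 µM ATP, 10 µM peptide, 2.5% DMSO, run to roughly half ATP consumption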
[3] = target: Pim3 kinase (Homo sapiens, UniProt Q86V86); assay: Pim3 ATP depletion assay

Sequence of Pim1 kinase (P11309 whole entry): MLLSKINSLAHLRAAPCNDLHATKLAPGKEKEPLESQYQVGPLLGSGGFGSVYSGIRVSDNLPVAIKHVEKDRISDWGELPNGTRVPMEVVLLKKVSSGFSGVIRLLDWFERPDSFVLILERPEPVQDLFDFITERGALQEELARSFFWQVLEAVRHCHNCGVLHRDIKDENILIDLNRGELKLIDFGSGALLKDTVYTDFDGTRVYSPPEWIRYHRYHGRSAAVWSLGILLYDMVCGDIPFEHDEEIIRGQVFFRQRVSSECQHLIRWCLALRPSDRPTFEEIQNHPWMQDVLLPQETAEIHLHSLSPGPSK
Sequence of Pim2 kinase (Q9P1W9 whole entry): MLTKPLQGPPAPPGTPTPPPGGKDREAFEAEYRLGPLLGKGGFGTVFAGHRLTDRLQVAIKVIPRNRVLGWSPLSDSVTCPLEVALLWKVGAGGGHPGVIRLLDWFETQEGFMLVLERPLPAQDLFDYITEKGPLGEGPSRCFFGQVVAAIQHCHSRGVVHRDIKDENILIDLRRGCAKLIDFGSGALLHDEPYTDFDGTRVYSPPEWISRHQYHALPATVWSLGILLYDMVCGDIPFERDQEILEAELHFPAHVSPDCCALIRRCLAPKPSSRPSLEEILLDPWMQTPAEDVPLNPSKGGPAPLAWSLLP

Compound	IC50 ([1]; read-out: IC50 (μM) PIM1)	IC50 ([2]; read-out: IC50 (μM) PIM2)	IC50 ([3]; read-out: IC50 (μM) PIM3)	IC50 ([1]; read-out: PIM1 IC50)	IC50 ([2]; read-out: PIM2 IC50)	IC50 ([3]; read-out: PIM3 IC50)
Nc1cnc(-c2c(F)cccc2F)nc1C(=O)Nc1cnccc1N1CC[C@@H](F)[C@H](N)C1 (stereo in doubt) [Example 256, 5-Amino-2-(2,6-difluoro-phenyl)-pyrimidine-4-carboxylic acid (3-amino-4-fluoro-3,4,5,6-tetrahydro-2H-[1,4′]bipyridinyl-3′-yl)-amide]	< 1 µM	< 1 µM	< 1 µM	–	–	–
CC(C)NC(=O)c1ccc(F)c(-c2ccc(N)c(C(=O)Nc3cnccc3N3C[C@@H](N)C[C@H](OC(=O)c4ccccc4)C3)n2)c1 (stereo in doubt) [Example 294, Benzoic acid 5-amino-3′-{[3-amino-6-(2-fluoro-5-isopropylcarbamoyl-phenyl)-pyridine-2-carbonyl]-amino}-3,4,5,6-tetrahydro-2H-[1,4′]bi-pyridinyl-3-yl ester]	< 1 µM	< 1 µM	< 1 µM	–	–	–
Nc1ccc(C2CC3CCC2C3)nc1C(=O)Nc1cnccc1N1CCC[C@H](N)C1 (stereo in doubt) [Example 646, 3-Amino-6-bicyclo[2.2.1]hept-2-yl-pyridine-2-carboxylic acid (3-amino-3,4,5,6-tetrahydro-2H-[1,4′]bipyridinyl-3′-yl)-amide]	–	–	–	< 1 µM	< 1 µM	< 1 µM
Nc1cnc(-c2ccccc2F)nc1C(=O)Nc1cnccc1N1CC[C@@H](O)[C@H](N)C1 (stereo in doubt) [Example 662, 5-Amino-2-(2-fluoro-phenyl)-pyrimidine-4-carboxylic acid (3-amino-4-hydroxy-3,4,5,6-tetrahydro-2H-[1,4′]bi-pyridinyl-3′-yl)-amide]	–	–	–	< 1 µM	< 1 µM	< 1 µM
Nc1cnc(-c2c(F)cccc2F)nc1C(=O)Nc1cnccc1N1CC[C@@H](O)[C@H](N)C1 (stereo in doubt) [Example 663, 5-Amino-2-(2,6-difluoro-phenyl)-pyrimidine-4-carboxylic acid (3-amino-4-hydroxy-3,4,5,6-tetrahydro-2H-[1,4′]bipyridinyl-3′-yl)-amide]	–	–	–	< 1 µM	< 1 µM	< 1 µM
CC(C)Oc1ccc(F)c(-c2ccc(N)c(C(=O)Nc3cnccc3N3CC[C@@H](O)[C@H](N)C3)n2)c1F (stereo in doubt) [Example 665, 3-Amino-6-(2,6-difluoro-3-isopropoxy-phenyl)-pyridine-2-carboxylic acid (3-amino-4-hydroxy-3,4,5,6-tetrahydro-2H-[1,4′]bipyridinyl-3′-yl)-amide]	–	–	–	< 1 µM	< 1 µM	< 1 µM
CC(C)Oc1ccc(F)c(-c2ccc(N)c(C(=O)Nc3cnccc3N3CC[C@@H](N)[C@H](O)C3)n2)c1F (stereo in doubt) [Example 667, 3-Amino-6-(2,6-difluoro-3-isopropoxy-phenyl)-pyridine-2-carboxylic acid (4-amino-3-hydroxy-3,4,5,6-tetrahydro-2H-[1,4′]bipyridinyl-3′-yl)-amide]	–	–	–	< 1 µM	< 1 µM	< 1 µM
Nc1cnc(-c2ccccc2)nc1C(=O)Nc1cnccc1N1CC[C@@H](O)[C@H](N)C1 (stereo in doubt) [Example 670, 5-Amino-2-phenyl-pyrimidine-4-carboxylic acid (3-amino-4-hydroxy-3,4,5,6-tetrahydro-2H-[1,4′]bipyridinyl-3′-yl)-amide]	–	–	–	< 1 µM	< 1 µM	< 1 µM
CC1(O)CCCN(c2ccncc2NC(=O)c2nc(-c3ccccc3F)ccc2N)C1 (stereo not drawn) [Example 162, 3-Amino-6-(2-fluoro-phenyl)-pyridine-2-carboxylic acid (3-hydroxy-3-methyl-3,4,5,6-tetra-hydro-2H-[1,4′]bipyridinyl-3′-yl)-amide]	< 1 µM	< 1 µM	< 1 µM	–	–	–
Nc1ccc(-c2c(F)cccc2F)nc1C(=O)Nc1cnccc1N1CCCCCCC1 [Example 167, 3-Amino-6-(2,6-difluoro-phenyl)-pyridine-2-carboxylic acid (4-azocan-1-yl-pyridin-3-yl)-amide]	< 1 µM	1 to 10 µM	< 1 µM	–	–	–
Nc1ccc(-c2c(F)cccc2F)nc1C(=O)Nc1cnccc1N1CCCOCC1 [Example 168, 3-Amino-6-(2,6-difluoro-phenyl)-pyridine-2-carboxylic acid (4-[1,4]oxazepan-4-yl-pyridin-3-yl)-amide]	< 1 µM	< 1 µM	< 1 µM	–	–	–
Nc1ccc(-c2c(F)cccc2F)nc1C(=O)Nc1cnccc1N1CCCCCC1 [Example 169, 3-Amino-6-(2,6-difluoro-phenyl)-pyridine-2-carboxylic acid (4-azepan-1-yl-pyridin-3-yl)-amide]	< 1 µM	< 1 µM	< 1 µM	–	–	–
NC(=O)c1ccc(N2CCCCC2)c(NC(=O)c2nccnc2N)c1 [Example 170, 3-amino-N-(5-carbamoyl-2-(piperidin-1-yl)phenyl)pyrazine-2-carboxamide]	< 1 µM	1 to 10 µM	< 1 µM	–	–	–
NC1CCCN(c2ccncc2NC(=O)c2cnccn2)C1 (stereo not drawn) [Example 197, N-[4-(3-aminopiperidin-1-yl)-pyridin-3-yl]pyrazine-2-carboxamide]	> 25 µM	> 25 µM	> 25 µM	–	–	–
Cc1cnc(C(=O)Nc2cnccc2N2CCCC(N)C2)cn1 (stereo not drawn) [Example 198, N-[4-(3-aminopiperidin-1-yl)pyridin-3-yl]-5-methyl-pyrazine-2-carboxamide]	> 25 µM	> 25 µM	> 25 µM	–	–	–
Nc1ncccc1C(=O)Nc1cnccc1N1CCCC(N)C1 (stereo not drawn) [Example 200, 2-amino-N-[4-(3-aminopiperidin-1-yl)pyridin-3-yl]nicotinamide]	10 to 25 µM	> 25 µM	> 25 µM	–	–	–
CC(=O)c1ccc(N2CCC(N)CC2)c(NC(=O)c2nccnc2N)c1 [Example 220, N-[5-acetyl-2-(4-aminopiperidin-1-yl)phenyl]-3-aminopyrazine-2-carboxamide]	< 1 µM	10 to 25 µM	< 1 µM	–	–	–
CC(=O)c1ccc(N2CCCC(N)C2)c(NC(=O)c2nccnc2N)c1 (stereo not drawn) [Example 221, N-[5-acetyl-2-(3-aminopiperidin-1-yl)phenyl]-3-aminopyrazine-2-carboxamide]	< 1 µM	1 to 10 µM	< 1 µM	–	–	–
CS(=O)(=O)c1ccc(N2CCC(N)CC2)c(NC(=O)c2nccnc2N)c1 [Example 234, 3-amino-N-[2-(4-aminopiperidin-1-yl)-5-(methylsulfonyl)phenyl]-pyrazine-2-carboxamide]	1 to 10 µM	> 25 µM	10 to 25 µM	–	–	–
Nc1nccnc1C(=O)Nc1cc(C(=O)C2CC2)ccc1N1CCNCC1 [Example 245, 3-amino-N-[5-(cyclopropyl-carbonyl)-2-piperazin-1-yl-phenyl]pyrazine-2-carboxamide]	> 25 µM	> 25 µM	10 to 25 µM	–	–	–
Nc1cnc(-c2c(F)cccc2F)nc1C(=O)Nc1cnccc1N1C[C@H](N)C[C@H](N)C1 [Example 246, 5-Amino-2-(2,6-difluoro-phenyl)-pyrimidine-4-carboxylic acid (3,5-diamino-3,4,5,6-tetra-hydro-2H-[1,4′]bipyridinyl-3′-yl)-amide]	< 1 µM	< 1 µM	< 1 µM	–	–	–
Nc1cnc(-c2ccccc2F)nc1C(=O)Nc1cnccc1N1C[C@H](N)C[C@H](N)C1 [Example 247, 5-Amino-2-(2-fluoro-phenyl)-pyrimidine-4-carboxylic acid (3,5-diamino-3,4,5,6-tetrahydro-2H-[1,4′]bipyridinyl-3′-yl)-amide]	< 1 µM	< 1 µM	< 1 µM	–	–	–
Nc1ccc(-c2ccccc2F)nc1C(=O)Nc1cnccc1N1C[C@H](N)C[C@H](N)C1 [Example 248, 3-Amino-6-(2-fluoro-phenyl)-pyridine-2-carboxylic acid (3,5-diamino-3,4,5,6-tetrahydro-2H-[1,4′]bipyridinyl-3′-yl)-amide]	< 1 µM	< 1 µM	< 1 µM	–	–	–
N[C@H]1CCCN(c2ccncc2NC(=O)c2ccnc(-c3ccccc3F)n2)C1 [Example 250, N-{4-[(3S)-3-aminopiperidin-1-yl]pyridin-3-yl}-2-(2-fluoro-phenyl)pyrimidine-4-carbox-amide]	< 1 µM	< 1 µM	< 1 µM	–	–	–
NCCC(=O)N1CCN(c2ccncc2NC(=O)c2nc(-c3ccccc3F)ccc2N)CC1 [Example 251, 3-Amino-6-(2-fluoro-phenyl)-pyridine-2-carboxylic acid {4-[4-(3-amino-propionyl)-piperazin-1-yl]-pyridin-3-yl}-amide]	< 1 µM	< 1 µM	< 1 µM	–	–	–
NCC(=O)N1CCN(c2ccncc2NC(=O)c2nc(-c3ccccc3F)ccc2N)CC1 [Example 252, 3-Amino-6-(2-fluoro-phenyl)-pyridine-2-carboxylic acid {4-[4-(2-amino-acetyl)-piperazin-1-yl]-pyridin-3-yl}-amide]	< 1 µM	< 1 µM	< 1 µM	–	–	–
CC1CC(N)CN(c2ccncc2NC(=O)c2ccc(F)c(-c3ccccc3F)n2)C1 (stereo not drawn) [Example 287, 5-Fluoro-6-(2-fluoro-phenyl)-pyridine-2-carboxylic acid (3-amino-5-methyl-3,4,5,6-tetra-hydro-2H-[1,4′]bipyridinyl-3′-yl)-amide]	–	–	< 1 µM	–	–	–
Nc1ccc(C2CCCCC2)nc1C(=O)Nc1cnccc1N1CCC[C@H](N)C1 [Example 636, 3-Amino-6-cyclohexyl-pyridine-2-carboxylic acid (3-amino-3,4,5,6-tetrahydro-2H-[1,4′]bipyridinyl-3′-yl)-amide]	–	–	–	< 1 µM	–	< 1 µM
